The values below come from ChEMBL document CHEMBL1148480, “Structure-activity studies of orexin a and orexin B at the human orexin 1 and orexin 2 receptors led to orexin 2 receptor selective and orexin 1 receptor preferring ligands” (J Med Chem, 2004).

Each structure is given as a SMILES string. Residues, ends and D or L forms follow the SMILES beside them.

The target in one test is T1, Orexin receptor type 2 (Homo sapiens, UniProt O43614).
T1 sequence (O43614 whole entry): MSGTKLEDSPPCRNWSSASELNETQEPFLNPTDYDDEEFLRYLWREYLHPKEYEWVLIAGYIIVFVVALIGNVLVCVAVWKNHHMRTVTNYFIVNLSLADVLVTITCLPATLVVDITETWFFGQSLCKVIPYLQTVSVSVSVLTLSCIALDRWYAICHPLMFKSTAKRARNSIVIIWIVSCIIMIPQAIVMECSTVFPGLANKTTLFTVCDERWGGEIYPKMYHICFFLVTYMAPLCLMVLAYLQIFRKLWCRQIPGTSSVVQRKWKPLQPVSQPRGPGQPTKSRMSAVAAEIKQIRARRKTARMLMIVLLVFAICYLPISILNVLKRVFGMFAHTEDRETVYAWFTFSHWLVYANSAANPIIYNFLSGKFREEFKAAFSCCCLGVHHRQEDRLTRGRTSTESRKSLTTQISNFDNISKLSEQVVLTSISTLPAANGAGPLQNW
The test is described as follows: Effective agonist concentration to the human Orexin receptor type 2 was determined using the Xlfit program. It counts as functional.

Test [1] concerns the target T2, Orexin/Hypocretin receptor type 1 (Homo sapiens, UniProt O43613).
T2 sequence (O43613 whole entry): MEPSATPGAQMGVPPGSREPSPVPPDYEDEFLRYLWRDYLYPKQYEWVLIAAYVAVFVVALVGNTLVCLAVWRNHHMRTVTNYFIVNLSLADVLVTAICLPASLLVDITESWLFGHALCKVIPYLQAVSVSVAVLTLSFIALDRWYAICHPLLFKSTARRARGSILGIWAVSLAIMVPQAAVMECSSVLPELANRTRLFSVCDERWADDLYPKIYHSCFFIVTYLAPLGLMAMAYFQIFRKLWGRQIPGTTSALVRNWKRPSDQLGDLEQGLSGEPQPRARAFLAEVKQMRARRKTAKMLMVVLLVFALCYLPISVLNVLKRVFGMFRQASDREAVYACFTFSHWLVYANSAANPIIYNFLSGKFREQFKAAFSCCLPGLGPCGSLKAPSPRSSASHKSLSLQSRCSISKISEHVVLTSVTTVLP
The test is described as follows: Effective agonist concentration to human orexin receptor type 1 determined using the Xlfit program. Format: functional.

Test [2] in a line: Ratio of orexin-1 receptor to orexin-2 receptor in human.

Consider `CC[C@H](C)[C@H](NC(=O)CNC(=O)[C@H](C)NC(=O)[C@H](C)NC(=O)[C@H](Cc1c[nH]cn1)NC(=O)[C@H](CC(N)=O)NC(=O)CNC(=O)[C@H](CO)NC(=O)[C@H](C)NC(=O)[C@H](CCC(N)=O)NC(=O)[C@H](CC(C)C)NC(=O)[C@H](CC(C)C)NC(=O)[C@H](CCCN=C(N)N)NC(=O)[C@H](CCC(N)=O)NC(=O)[C@H](CC(C)C)NC(=O)[C@H](CCCN=C(N)N)NC(=O)CNC(=O)[C@H](CCC(N)=O)NC(=O)[C@H](CC(C)C)NC(=O)CN)C(=O)N[C@@H](CC(C)C)C(=O)N[C@H](C(=O)N1CCC[C@H]1C(=O)O)[C@@H](C)O` (H-GLQGRLQRLLQASGNHAAGILTP-OH), for which the EC50 on Orexin receptor type 2 is 3.63 µM; in test [1] it was over 1000 µM. Besides, the Ratio in test [2] was over 275.

With `CC[C@H](C)[C@H](NC(=O)CNC(=O)[C@H](C)NC(=O)[C@H](C)NC(=O)[C@H](Cc1c[nH]cn1)NC(=O)[C@H](CC(N)=O)NC(=O)CNC(=O)[C@H](C)NC(=O)CNC(=O)[C@H](Cc1c[nH]cn1)NC(=O)[C@H](CC(C)C)NC(=O)[C@H](CC(C)C)NC(=O)[C@H](CCC(=O)O)NC(=O)[C@H](Cc1ccc(O)cc1)NC(=O)[C@H](CC(C)C)NC(=O)[C@H](CCCN=C(N)N)NC(=O)[C@H](CS)NC(=O)[C@H](CO)NC(=O)[C@H](CS)NC(=O)[C@@H](NC(=O)[C@H](CCCCN)NC(=O)[C@H](CCC(N)=O)NC(=O)[C@H](CCCN=C(N)N)NC(=O)[C@H](CS)NC(=O)[C@H](CS)NC(=O)[C@H](CC(=O)O)NC(=O)[C@@H]1CCCN1C(=O)[C@H](CC(C)C)NC(=O)[C@@H]1CCCN1)[C@@H](C)O)C(=O)N[C@@H](CC(C)C)C(=O)N[C@H](C(=O)N[C@@H](CC(C)C)C(=O)O)[C@@H](C)O`, the EC50 on Orexin receptor type 2 was found to be 2.51 µM; in test [1], 0.86 µM. The Ratio in test [2] worked out at 0.3.

Consider `CC[C@H](C)[C@H](NC(=O)CNC(=O)[C@H](C)NC(=O)[C@H](C)NC(=O)[C@H](Cc1c[nH]cn1)NC(=O)[C@H](CC(N)=O)NC(=O)CNC(=O)[C@H](CO)NC(=O)[C@H](C)NC(=O)[C@H](CCC(N)=O)NC(=O)[C@H](CC(C)C)NC(=O)[C@H](CC(C)C)NC(=O)[C@H](CCCN=C(N)N)NC(=O)[C@H](CCC(N)=O)NC(=O)[C@H](CC(C)C)NC(=O)[C@H](CCCN=C(N)N)NC(=O)CNC(=O)[C@H](CCC(N)=O)NC(=O)[C@H](CC(C)C)NC(=O)CN)C(=O)N1CCC[C@H]1C(=O)N[C@H](C(=O)N[C@@H](CCSC)C(=O)O)[C@@H](C)O` (H-GLQGRLQRLLQASGNHAAGIPTM-OH), for which the EC50 on Orexin receptor type 2 was determined as 0.63 µM; in test [1], 8.77 µM. The Ratio in test [2] came to 13.9.

For the compound `CC[C@H](C)[C@H](NC(=O)CNC(=O)[C@H](C)NC(=O)[C@H](C)NC(=O)[C@H](Cc1c[nH]cn1)NC(=O)[C@H](CC(N)=O)NC(=O)CNC(=O)[C@H](CO)NC(=O)[C@H](C)NC(=O)[C@H](CCC(N)=O)NC(=O)[C@H](CC(C)C)NC(=O)[C@H](CC(C)C)NC(=O)[C@H](CCCN=C(N)N)NC(=O)[C@H](CCC(N)=O)NC(=O)[C@H](CC(C)C)NC(=O)[C@H](CCCN=C(N)N)NC(=O)CNC(=O)[C@H](CCC(N)=O)NC(=O)[C@H](CC(C)C)NC(=O)CN)C(=O)N[C@@H](CC(C)C)C(=O)N[C@H](C(=O)N[C@@H](C)C(=O)O)[C@@H](C)O` (H-GLQGRLQRLLQASGNHAAGILTA-OH), the EC50 on Orexin receptor type 2 was 0.75 µM; in test [1] it was 4.84 µM. In addition, the Ratio in test [2] was found to be 6.5.

What is called EC50 is the concentration needed to bring the measured effect to its halfway point. Low readings indicate an effect from little substance, high ones a need for much substance.
